Reference: US20230234920A1, “Azirine Containing Compounds as Anti-Angiogenesis Agents and a Process for the Preparation Thereof” (COUNCIL OF SCIENTIFIC & INDUSTRIAL RESEARCH, priority 2020, published 2023)

Columns and labels:
[1] = system: phospho-VEGFR2; test: Immunoblotting of treated HUVECs, phospho-VEGFR2; format: cell-based, human; conditions: 250 nM, 6 h
Experimental: (A) Serum-starved HUVECs were treated with control (0.1% DMSO), sunitinib and Compound 1 at a given concentrations and then incubated for 6 h. The expression level of phospho-VEGFR2 and GAPDH (housekeeping protein) was analyzed by immunoblotting. (B) Blots were quantified with Image-J software and the bar graphs represent the relative density of phospho-VEGFR2 normalized with GAPDH and the data are represented as mean±SEM with significant difference compared with control at *p<0.05. (D) Protein angiogenesis array showing up-regulation of anti-angiogenic protein and down-regulation of pro-angiogenic proteins on endothelial cell treated with Compound 1 at 260 nM.
Whole cell lysates of endothelial cells at 6 h of treatment with Compound 1 (250 nM) and sunitinib (50 nM) were prepared using the RIPA-lysis buffer. Proteins were fractionated and resolved on 8% SDS-PAGE gels and transferred onto PVDF membranes (Millipore). After incubation in blocking buffer (5% BSA in 1×TBST) for 1 h the membranes were incubated with primary antibodies specific for p-Akt and p-Src. GAPDH was used as housekeeping and loading control. The blots were then incubated with specific HRP-conjugated secondary antibodies and bands were visualized using ECL (Millipore) on Image Quant (LAS4010) chemiluminescence detection system. The band intensities were quantified using My Image Analysis software.

[2] = system: Endothelin-1 receptor; test: Endothelin-1 induced contraction of isolated artery rings; set-up: species or system mice; conditions: for % contraction of aortic ring: ET-1 at 100 nM
Source text: FIG. 15 represents effect of Compound 1 on endothelin-1 concentration-response curves. (A) Concentration-response curve of endothelin-1 in isolated carotid arteries of vehicle-treated (Control) and Compound 1 treated mice. (B) Concentration-response curve of endothelin-1 in isolated carotid arteries of vehicle-treated (Control) and compound 3 along with compound 8 treated mice.
To test for the selectivity of the putative Endothelin-1 receptor, we applied endothelin-1 or Compound 1 in a concentration dependent manner to the […] to observe its contraction inhibition activity (FIG. 15).

CCOC(=O)C1N=C1CCc1ccc(OC)cc1 (racemic) [Compound 1, Ethyl 3-(4-methoxyphenethyl)-2H-azirine-2-carboxylate]
p-VEGFR2 expression [1]: marked reduction
concentration initiating inhibition of ET-1 mediated contraction [2]: 3 nM
% contraction of aortic ring ([2]; 10 nM): about 35%
% contraction of aortic ring ([2]; 30 nM): ~25%
% contraction of aortic ring ([2]; 50 nM): about 20%
